The NIST ThermoML archive (doi:10.1016/j.jct.2011.02.008)

Conditions: Liquid, Vibrating tube method

C1CCCCC1 [cyclohexane]
mass density [kg/m3]
Conditions | 288.15 K | 298.15 K | 308.15 K | 318.15 K | 328.15 K | 338.15 K | 348.15 K | 358.15 K
100 kPa | 782.7 | 773.2 | 763.6 | 754 | 744.4 | 734.5 | 724.6 | 714.3
1000 kPa | 783.7 | 774 | 764.5 | 755 | 745.4 | 735.6 | 725.7 | 715.6
5000 kPa | 787 | 777.6 | 768.2 | 759 | 749.7 | 740.2 | 730.8 | 720.9
10000 kPa | 790.7 | 781.8 | 772.6 | 763.7 | 754.7 | 745.7 | 736.5 | 727.2
15000 kPa | 794.1 | 785.6 | 776.8 | 767.9 | 759.5 | 750.7 | 741.9 | 732.9
20000 kPa | – | 789.3 | 780.8 | 772.4 | 764 | 755.5 | 747 | 738.3
25000 kPa | – | 792.9 | 784.6 | 776.4 | 768.2 | 760 | 751.7 | 743.3
30000 kPa | – | 796.8 | 788.3 | 780.3 | 772.3 | 764.3 | 756.2 | 748.1
35000 kPa | – | 799.7 | 791.8 | 784.1 | 776.1 | 768.4 | 760.5 | 752.6
40000 kPa | – | – | 795.2 | 787.7 | 779.9 | 772.3 | 764.6 | 757
45000 kPa | – | – | – | 791.1 | 783.5 | 776 | 768.6 | 761.1
50000 kPa | – | – | – | 794.4 | 787 | 779.7 | 772.3 | 765
55000 kPa | – | – | – | – | – | 783.2 | 776 | 768.9
